This data set is described as follows: Spectroscopic measurements (absorption, emission, quantum yield, extinction coefficient). It is filed as physicochemical.
Setting [1] is: BDNCA library, extinction coefficient; in M-1 cm-1 (unit assumed).
Where [2] appears, read: BDNCA library, fluorescence emission.
[3] abbreviates: BDNCA library, difference emission minus absorption.

This is an account of results in patent US9423396B2, “Bodipy structure fluorescence probes for diverse biological applications” (National University of Singapore, priority 2011, dated 2016).

Consider `CC1=CC(/C=C/c2ccc(N(C)CCC#N)cc2)=[N+]2C1=C(c1ccc(NC(=O)CCl)cc1)c1cccn1[B-]2(F)F` [BDNCA-3], for which, for the setting “BDNCA library”, the “Qunt. Yield” value is reported as “weak”. The Abs (BDNCA library, absorption) stood at 605 nm. In addition, the ε under setting [1] is 73,593. For the same molecule, the Flu entry under setting [2] is listed as “weak”.
With `CC1=CC(/C=C/c2ccc(OCc3ccccc3)c(OCc3ccccc3)c2)=[N+]2C1=C(c1ccc(NC(=O)CCl)cc1)c1cccn1[B-]2(F)F` [BDNCA-4], the “Qunt. Yield” value (BDNCA library) was determined as 0.18. The same molecule came in with an Abs (BDNCA library, absorption) of 570 nm. Under setting [3], this molecule registered a Flu-Abs of 41. Moreover, the ε under setting [1] was 79,908. The molecule further came in with a Flu under setting [2] of 611.
Turning to `CC1=CC(/C=C/c2c3ccccc3cc3ccccc23)=[N+]2C1=C(c1ccc(NC(=O)CCl)cc1)c1cccn1[B-]2(F)F` [BDNCA-6], the “Qunt. Yield” value (BDNCA library) is given as “weak”. Further, the Abs (BDNCA library, absorption) came out at 536 nm. The ε under setting [1] is listed as 41,465. For the same molecule, the Flu entry under setting [2] is recorded as “weak”.
As for `COc1ccc(/C=C/C2=[N+]3C(=C(c4ccc(NC(=O)CCl)cc4)c4cccn4[B-]3(F)F)C(C)=C2)cc1OCc1ccccc1` [BDNCA-7], the “Qunt. Yield” value (BDNCA library) worked out at 0.19. The same molecule displayed an Abs (BDNCA library, absorption) of 570 nm. Moreover, under setting [3], the Flu-Abs was found to be 46. Further, under setting [1], the ε is 87,872. Under setting [2], this molecule returned a Flu of 616.
With `CC1=CC(/C=C/c2ccc(-n3ccnc3)cc2)=[N+]2C1=C(c1ccc(NC(=O)CCl)cc1)c1cccn1[B-]2(F)F` [BDNCA-8], the “Qunt. Yield” value (BDNCA library) turned out to be 0.04. In addition, the Abs (BDNCA library, absorption) came out at 562 nm. Under setting [3], the Flu-Abs is given as 20. The ε under setting [1] is given as 29,108. Moreover, the Flu under setting [2] was found to be 582.
For the molecule `Cc1cccc(/C=C/c2cc(C)c3n2[B-](F)(F)[N+]2=CC=CC2=C3c2ccc(NC(=O)CCl)cc2)c1` [BDNCA-9], the “Qunt. Yield” value (BDNCA library) is recorded as 0.10. The Abs (BDNCA library, absorption) was determined as 556 nm. Also, under setting [3], the Flu-Abs was determined as 19. In addition, the ε under setting [1] is 47,780. Moreover, the Flu under setting [2] is 575.
Consider `CC1=CC(/C=C/c2ccc(Cl)cc2)=[N+]2C1=C(c1ccc(NC(=O)CCl)cc1)c1cccn1[B-]2(F)F` [BDNCA-12], for which the “Qunt. Yield” value (BDNCA library) was 0.10. The same molecule yielded an Abs (BDNCA library, absorption) of 557 nm. This molecule also registered a Flu-Abs under setting [3] of 19. Also, the ε under setting [1] is reported as 49,428. For the same molecule, under setting [2], the Flu is 576.
`CC1=CC(/C=C/c2ccc(N(c3ccccc3)c3ccccc3)cc2)=[N+]2C1=C(c1ccc(NC(=O)CCl)cc1)c1cccn1[B-]2(F)F` [BDNCA-14] displayed an Abs (BDNCA library, absorption) of 599 nm. Moreover, the ε under setting [1] is given as 35,149.
With `CC1=CC(/C=C/c2ccc(C#N)cc2)=[N+]2C1=C(c1ccc(NC(=O)CCl)cc1)c1cccn1[B-]2(F)F` [BDNCA-15], the “Qunt. Yield” value (BDNCA library) is on record as 0.13. For the setting “BDNCA library, absorption”, this molecule gave an Abs of 560 nm. Under setting [3], this molecule came in with a Flu-Abs of 18. Under setting [1], the ε is given as 49,977. Besides, the Flu under setting [2] came to 578.
Regarding `CCCCN(CCCC)c1ccc(/C=C/C2=[N+]3C(=C(c4ccc(NC(=O)CCl)cc4)c4cccn4[B-]3(F)F)C(C)=C2)cc1` [BDNCA-17], the “Qunt. Yield” value (BDNCA library) was “weak”. In addition, the Abs (BDNCA library, absorption) was determined as 627 nm. Besides, the ε under setting [1] is 52,998. Further, under setting [2], the Flu entry is given as “weak”.
With `CC1=CC(/C=C/c2ccc(C(C)C)cc2)=[N+]2C1=C(c1ccc(NC(=O)CCl)cc1)c1cccn1[B-]2(F)F` [BDNCA-19], the “Qunt. Yield” value (BDNCA library) is 0.13. The same molecule came in with an Abs (BDNCA library, absorption) of 558 nm. Moreover, the Flu-Abs under setting [3] is recorded as 22. Besides, under setting [1], the ε is on record as 61,236. The Flu under setting [2] was determined as 580.
For `CC1=CC(/C=C/c2cccc(Oc3ccccc3)c2)=[N+]2C1=C(c1ccc(NC(=O)CCl)cc1)c1cccn1[B-]2(F)F` [BDNCA-20] the same measures were 0.11, 556 nm, 20, 51,625 and 576.
For `CC1=CC(/C=C/c2cccc3ccccc23)=[N+]2C1=C(c1ccc(NC(=O)CCl)cc1)c1cccn1[B-]2(F)F` [BDNCA-25], in that order: 0.09, 566 nm, 28, 32,952 and 594.
Regarding `CC1=CC(/C=C/c2ccccc2)=[N+]2C1=C(c1ccc(NC(=O)CCl)cc1)c1cccn1[B-]2(F)F` [BDNCA-27], the “Qunt. Yield” value (BDNCA library) is listed as 0.11. For the setting “BDNCA library, absorption”, this molecule registered an Abs of 554 nm. Under setting [3], this molecule had a Flu-Abs of 23. In addition, under setting [1], the ε is listed as 73,318. Further, the Flu under setting [2] stood at 577.
On to `COc1cc(/C=C/C2=[N+]3C(=C(c4ccc(NC(=O)CCl)cc4)c4cccn4[B-]3(F)F)C(C)=C2)cc(Cl)c1O` [BDNCA-29], for which the “Qunt. Yield” value (BDNCA library) worked out at 0.01. The Abs (BDNCA library, absorption) is 567 nm. In addition, the Flu-Abs under setting [3] was found to be 30. The ε under setting [1] is on record as 25,812. The same molecule came in with a Flu under setting [2] of 597.
For `COc1ccc(/C=C/c2cc(C)c3n2[B-](F)(F)[N+]2=CC=CC2=C3c2ccc(NC(=O)CCl)cc2)c2ccccc12` [BDNCA-32], under “BDNCA library”, the “Qunt. Yield” value is recorded as 0.06. Under “BDNCA library, absorption”, this molecule displayed an Abs of 583 nm. Under setting [3], this molecule gave a Flu-Abs of 66. Besides, the ε under setting [1] is given as 27,735. The Flu under setting [2] stood at 649.
In the case of `CC1=CC(/C=C/c2ccc(C)c3ccccc23)=[N+]2C1=C(c1ccc(NC(=O)CCl)cc1)c1cccn1[B-]2(F)F` [BDNCA-36], the “Qunt. Yield” value (BDNCA library) is listed as 0.08. The molecule further returned an Abs (BDNCA library, absorption) of 572 nm. The molecule also yielded a Flu-Abs under setting [3] of 38. Besides, the ε under setting [1] is given as 30,755. The Flu under setting [2] worked out at 610.
Consider `CC1=CC(/C=C/c2csc3ccccc23)=[N+]2C1=C(c1ccc(NC(=O)CCl)cc1)c1cccn1[B-]2(F)F` [BDNCA-37], for which the “Qunt. Yield” value (BDNCA library) is recorded as 0.14. In addition, for the setting “BDNCA library, absorption”, the Abs was determined as 567 nm. Under setting [3], this molecule gave a Flu-Abs of 33. Moreover, the ε under setting [1] is 71,121. In addition, under setting [2], the Flu is 600.
`CC(=O)Oc1ccc(/C=C/c2cc(C)c3n2[B-](F)(F)[N+]2=CC=CC2=C3c2ccc(NC(=O)CCl)cc2)cc1` [BDNCA-41] showed an Abs (absorption maximum, BDNCA library) of 565 nm. The Flu-Abs (difference of emission and absorption maxima) was determined as 29. In addition, the ε (extinction coefficient, BDNCA library; in M-1 cm-1 (unit assumed)) is 47,780. The Flu (fluorescence emission maximum, BDNCA library) is 594. Also, the “Qunt. Yield” value (quantum yield, BDNCA library) was 0.13.
In the case of `COc1ccc(Oc2cccc(/C=C/C3=[N+]4C(=C(c5ccc(NC(=O)CCl)cc5)c5cccn5[B-]4(F)F)C(C)=C3)c2)cc1` [BDNCA-42], the “Qunt. Yield” value (BDNCA library) is 0.08. In addition, the Abs (BDNCA library, absorption) was found to be 556 nm. This molecule also registered a Flu-Abs under setting [3] of 21. Moreover, the ε under setting [1] is listed as 54,645. The molecule further gave a Flu under setting [2] of 577.
With `COc1cc(C=CC=CC2=[N+]3C(=C(c4ccc(NC(=O)CCl)cc4)c4cccn4[B-]3(F)F)C(C)=C2)ccc1OC(C)=O` [BDNCA-44], the “Qunt. Yield” value (BDNCA library) was “weak”. Where the note is “BDNCA library, absorption”, the Abs came to 580 nm. For the same molecule, the ε under setting [1] is recorded as 12,632. Further, under setting [2], the Flu result is “weak”.
With `CCCCCCOc1ccc(/C=C/C2=[N+]3C(=C(c4ccc(NC(=O)CCl)cc4)c4cccn4[B-]3(F)F)C(C)=C2)cc1` [BDNCA-45], the “Qunt. Yield” value (BDNCA library) amounted to 0.13. Further, the Abs (BDNCA library, absorption) was 566 nm. Further, the Flu-Abs under setting [3] amounted to 32. Moreover, the ε under setting [1] was 82,929. The Flu under setting [2] amounted to 598.
